Where a SMILES comes first, the peptide text is derived from it. [ ]: non-standard residue; d: D form. The star is where a group is joined. Tyr(3-NO2) = N[C@@H](Cc1ccc(O)c([N+](=O)[O-])c1)C(=O)O; Boc = CC(C)(C)OC(=O)*
Experiments:
[1] = molecular target: T1, recombinant active human PAI-1 (Homo sapiens (Human), UniProt P05121); test: pH dependence of PAI-1 inhibition, fluorogenic uPA (or tPA) assay; format: biochemical; settings: for effect of pH on PAI-1 inhibition (in words): pH 6.5 to 8.5; for PAI-1 inhibitory efficacy (in words): pH 7.5 (FIG. 8), additional experiments
PAI-1 = PAI-1 (Homo sapiens (Human), UniProt P05121); test: Surface plasmon resonance, loss of PAI-1 binding to immobilized anhydrotrypsin; settings: PAI-1 2 nM preincubated with compound, SPR; read-out: Apparent KD (nM) ± SEM
[2] = molecular target: T1, recombinant active human PAI-1; test: Fluorometric IC50 plate assay (PAI-1 inhibition of uPA, Z-Gly-Gly-Arg-AMC); format: biochemical; settings: in vitro, PAI-1 1 nM, uPA 2.5 nM, pH 7.8, 10% DMSO; ND = not detected, e.g. no inhibition
[3] = molecular target: anti-thrombin III (ATIII) (Homo sapiens (Human), UniProt P01008); test: Specificity assay on anti-thrombin III (thrombin activity); format: biochemical; settings: pH 7.5 or pH 8.5, with heparin
PAI-1/vitronectin = PAI-1/vitronectin (Homo sapiens (Human), UniProt P05121); test: Inhibition of PAI-1 in the presence of vitronectin, fluorogenic uPA assay; format: biochemical
Chain of PAI-1/vitronectin (P05121 24-402): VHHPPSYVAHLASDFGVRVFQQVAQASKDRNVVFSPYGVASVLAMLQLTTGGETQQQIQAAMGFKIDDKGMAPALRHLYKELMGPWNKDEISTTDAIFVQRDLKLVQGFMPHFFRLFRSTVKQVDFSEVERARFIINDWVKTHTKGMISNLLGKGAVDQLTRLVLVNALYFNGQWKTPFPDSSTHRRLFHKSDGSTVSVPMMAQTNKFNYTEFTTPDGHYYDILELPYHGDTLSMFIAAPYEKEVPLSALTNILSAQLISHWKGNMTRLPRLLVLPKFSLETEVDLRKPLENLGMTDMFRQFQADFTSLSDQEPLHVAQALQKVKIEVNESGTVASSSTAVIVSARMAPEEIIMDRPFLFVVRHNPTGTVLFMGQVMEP

Chain of PAI-1 (P05121 24-402): as above
T1 sequence (P05121 24-402): as above
Chain of anti-thrombin III (ATIII) (P01008 33-464, species assumed): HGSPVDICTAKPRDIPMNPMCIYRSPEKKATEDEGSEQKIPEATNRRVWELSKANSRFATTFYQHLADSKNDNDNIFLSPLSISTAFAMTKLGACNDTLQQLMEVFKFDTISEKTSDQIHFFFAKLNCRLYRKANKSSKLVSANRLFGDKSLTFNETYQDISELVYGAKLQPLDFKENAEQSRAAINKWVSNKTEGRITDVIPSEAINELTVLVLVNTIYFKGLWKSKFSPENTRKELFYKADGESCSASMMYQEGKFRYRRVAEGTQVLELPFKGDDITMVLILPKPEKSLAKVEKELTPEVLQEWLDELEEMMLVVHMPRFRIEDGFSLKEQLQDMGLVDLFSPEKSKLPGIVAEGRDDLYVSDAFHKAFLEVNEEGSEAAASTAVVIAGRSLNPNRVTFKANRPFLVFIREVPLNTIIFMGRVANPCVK

SMILES | effect of pH on PAI-1 inhibition (in words) [1] | IC50 [2] [µM] | PAI-1 inhibitory efficacy (in words) [1] | other results
O=C(OCCOC(=O)c1cc(O)c(O)c(O)c1)c1cc(O)c(O)c(O)c1 [CDE-008] | more effective inhibitor at pH 8.5 than at pH 7.5 | 0.37 | – | IC50 ([1]; pH 6.5): 325 µM; IC50 ([1]; pH 7.5): 0.288 µM; IC50 ([1]; pH 8.5): 0.064 µM; Kd (PAI-1): 23 ± 1 nM; effect on ATIII activity (in words) [3]: no effect; inhibition of PAI-1 in the presence of vitronectin (in words) (PAI-1/vitronectin; 200 nM vitronectin, pH 7.5 and pH 8.5): inhibits PAI-1 in the presence of vitronectin at both pH 7.5 and pH 8.5; change of IC50 in the presence of vitronectin (PAI-1/vitronectin; at each pH (7.5 and 8.5)): 1 log value
O=C(OCCOCCOC(=O)c1cc(O)c(O)c(O)c1)c1cc(O)c(O)c(O)c1 [CDE-009] | – | 49.3 | effective PAI-1 inhibitors | –
O=C(OCCOCCOCCOCCOC(=O)c1cc(O)c(O)c(O)c1)c1cc(O)c(O)c(O)c1 [CDE-011] | – | 338 | effective PAI-1 inhibitors | –
O=C(OCCOCCOCCOC(=O)c1cc(O)c(O)c(O)c1)c1cc(O)c(O)c(O)c1 [CDE-012] | – | 196 | effective PAI-1 inhibitors | –
O=S(=O)(NCCNS(=O)(=O)c1ccc(O)c(O)c1)c1ccc(O)c(O)c1 [CDE-021] | increased with increasing pH | 450 | effective inhibitors of PAI-1 | –
CC(C)(C)OC(=O)N[C@@H](Cc1ccc(O)c([N+](=O)[O-])c1)C(=O)O [CDE-028] | increased with increasing pH | 386 | effective inhibitors of PAI-1 | –
CCN(CCN(CC)S(=O)(=O)c1ccc(OC)c(OC)c1)S(=O)(=O)c1ccc(OC)c(OC)c1 [CDE-030] | increased with increasing pH | – | effective inhibitors of PAI-1 | –
CCOC(=O)[C@H](Cc1ccc(O)c([N+](=O)[O-])c1)NC(=O)[C@H](Cc1ccc(O)c([N+](=O)[O-])c1)NC(=O)OC(C)(C)C [CDE-033] (Boc-[Tyr(3-NO2)]-[Tyr(3-NO2)]-OEt) | – | 246 | – | –
CC(C)(C)OC(=O)N[C@@H](Cc1ccc(O)c([N+](=O)[O-])c1)C(=O)N[C@@H](Cc1ccc(O)c([N+](=O)[O-])c1)C(=O)O [CDE-035] (Boc-[Tyr(3-NO2)]-[Tyr(3-NO2)]-OH) | – | 146 | – | –
O=C(OCCOC(=O)c1cccc(OC(=O)c2cc(O)c(O)c(O)c2)c1)c1cccc(OC(=O)c2cc(O)c(O)c(O)c2)c1 [CDE-041] | – | 47.9 | – | –
O=C(NCCNC(=O)c1cc(O)c(O)c(O)c1)c1cc(O)c(O)c(O)c1 [CDE-044] | – | 900 | – | –
O=C(OCCOC(=O)c1ccc(O)cc1O)c1ccc(O)cc1O [CDE-051] | – | 28.7 | – | –
O=C(c1cc(O)c(O)c(O)c1)N1CCN(C(=O)c2cc(O)c(O)c(O)c2)CC1 [CDE-055] | – | 27.5 | – | –
O=C(O[C@@H]1CCC[C@H](OC(=O)c2cc(O)c(O)c(O)c2)C1)c1cc(O)c(O)c(O)c1 [CDE-057] | – | 195 | – | –

Second part, led by results:

effect of pH on PAI-1 inhibition (in words) [1] | IC50 [2] [µM] | PAI-1 inhibitory efficacy (in words) [1] | SMILES | other results
increased with increasing pH | 10.2 | effective inhibitors of PAI-1 | CCN(CCN(CC)S(=O)(=O)c1ccc(O)c(O)c1)S(=O)(=O)c1ccc(O)c(O)c1 [CDE-032] | –
– | 7.85 | effective PAI-1 inhibitors | O=C(OCCCOC(=O)c1cc(O)c(O)c(O)c1)c1cc(O)c(O)c(O)c1 [CDE-013] | –
– | 2.96 | – | O=C(Oc1ccccc1OC(=O)c1cc(O)c(O)c(O)c1)c1cc(O)c(O)c(O)c1 [CDE-056] | Kd (PAI-1): 51 ± 6 nM
– | 1.17 | – | O=C(O[C@@H]1CCCC[C@H]1OC(=O)c1cc(O)c(O)c(O)c1)c1cc(O)c(O)c(O)c1 [CDE-034] | Kd (PAI-1): 67 ± 3 nM
increased with increasing pH | 0.28 | effective inhibitors of PAI-1 | O=C(O[C@H]1CCCC[C@H]1OC(=O)c1cc(O)c(O)c(O)c1)c1cc(O)c(O)c(O)c1 [CDE-031] | Kd (PAI-1): 31 ± 2 nM
